Source: ChEMBL document CHEMBL1136853, “Synthesis and SAR of vinca alkaloid analogues” (Bioorg Med Chem Lett, 2009)

Tests used:
MCF7 = test: Cytotoxicity against human MCF7 cells; format: functional
HeLa = test: Cytotoxicity against human HeLa cells; format: functional
P388 [1] = test: Antitumor activity against mouse P388 cells xenografted in mouse assessed as median life span at 4 mg/kg, ip q4d for 3 days measured for 60 days; format: functional; conditions: route intraperitoneal
P388 [2] = test: Antitumor activity against mouse P388 cells xenografted in mouse assessed as median life span at 2 mg/kg, ip q4d for 3 days measured for 60 days; format: functional; conditions: route intraperitoneal
P388 [3] = test: Antitumor activity against mouse P388 cells xenografted in mouse assessed as median life span at 6 mg/kg, ip q4d for 3 days measured for 60 days; format: functional; conditions: route intraperitoneal
P388 [4] = test: Antitumor activity against mouse P388 cells xenografted in mouse assessed as median life span at 12 mg/kg, ip q4d for 3 days measured for 60 days; format: functional; conditions: route intraperitoneal
[5] = Toxicity to mouse assessed as mortality at 12 mg/kg, ip q4d for 3 days; format: organism-based; design: dose 12 mg/kg, route intraperitoneal; conditions: in vivo, read-out: Activity
P388 [6] = test: Antitumor activity against mouse P388 cells xenografted in mouse assessed as median life span at 3 mg/kg, ip q4d for 3 days measured for 60 days; format: functional; conditions: route intraperitoneal

## CCC1=C[C@H]2CN(C1)Cc1c([nH]c3ccc(SC)cc13)[C@@](C(=O)OC)(c1cc3c(cc1OC)N(C)[C@H]1[C@@](O)(C(=O)OC)[C@H](OC(C)=O)[C@]4(CC)CC=CN5CC[C@]31[C@@H]54)C2
MCF7
  GI50: 1 nM
HeLa
  GI50: 0.3 nM
P388 [1]
  T/C: 124%
P388 [2]
  T/C: 102%

## CCC1=C[C@@H]2CN(C1)Cc1c([nH]c3ccccc13)[C@@](C(=O)OC)(c1cc3c(cc1OC)N(C)[C@H]1[C@@](O)(C(=O)OC)[C@H](OC(C)=O)[C@]4(CC)C=CCN5CC[C@]31[C@@H]54)C2 [VINORELBINE]
MCF7
  GI50: 2.4 nM
HeLa
  GI50: 2.7 nM
P388 [3]
  T/C: 114%
P388 [4]
  T/C: 117%
[5]
  mortality at 72 h: > 10%

## CC[C@]1(O)C[C@H]2CN(CCc3c([nH]c4ccc(C)cc34)[C@@](C(=O)OC)(c3cc4c(cc3OC)N(C)[C@H]3[C@@](O)(C(=O)OC)[C@H](OC(C)=O)[C@]5(CC)CC=CN6CC[C@]43[C@@H]65)C2)C1
MCF7
  GI50: 0.3 nM
HeLa
  GI50: 0.3 nM
P388 [3]
  T/C: 181%
P388 [6]
  T/C: 133%
